pIC50: −log10 of the molar value.
These molecules were tested against Bcl-2 G101V (Homo sapiens, UniProt P10415, G101V) (assay: Bcl-2 G101V inhibition, fluorescence polarization (Flu-BIM tracer) binding assay). Conditions: FP; 20 nM Bcl2, 5 nM Flu-BIM, 1 h incubation; read-out: Bcl-2 G101V (FP).
For `CC(C)(O)Cc1ccc(-c2csc(C3=C(CN4CCN(c5ccc(C(=O)NS(=O)(=O)c6ccc(NC[C@H]7CC[C@](C)(O)CC7)c([N+](=O)[O-])c6)c(Oc6cnc7[nH]ccc7c6)c5)CC4)CCC(C)(C)C3)c2)c(F)c1` [Example 73, 2-((1H-pyrrolo[2,3-b]pyridin-5-yl)oxy)-4-(4-((2-(4-(2-fluoro-4-(2-hydroxy-2-methylpropyl)phenyl)thiophen-2-yl)-4,4-dimethylcyclohex-1-en-1-yl)methyl)piperazin-1-yl)-N-((4-((((1r,4r)-4-hydroxy-4-methylcyclohexyl)methyl)amino)-3-nitrophenyl)sulfonyl)benzamide], the pIC50 was 7.60. Work on `CC1(C)CCC(CN2CCN(c3ccc(C(=O)NS(=O)(=O)c4ccc(NC[C@H]5CC[C@](C)(O)CC5)c([N+](=O)[O-])c4)c(Oc4cnc5[nH]ccc5c4)c3)CC2)=C(c2cc(-c3c(F)cc(C(C)(C)CO)cc3F)cs2)C1` [Example 74, 2-((1H-pyrrolo[2,3-b]pyridin-5-yl)oxy)-4-(4-((2-(4-(2,6-difluoro-4-(1-hydroxy-2-methylpropan-2-yl)phenyl)thiophen-2-yl)-4,4-dimethylcyclohex-1-en-1-yl)methyl)piperazin-1-yl)-N-((4-((((1r,4r)-4-hydroxy-4-methylcyclohexyl)methyl)amino)-3-nitrophenyl)sulfonyl)benzamide] yielded a pIC50 of 7.52. Work on `CC1(C)CCC(CN2CCN(c3ccc(C(=O)NS(=O)(=O)c4ccc(NC[C@H]5CC[C@](C)(O)CC5)c([N+](=O)[O-])c4)c(Oc4cnc5[nH]ccc5c4)c3)CC2)=C(c2cc(-c3cc(C(C)(C)O)ccc3F)cs2)C1` [Example 75, 2-((1H-pyrrolo[2,3-b]pyridin-5-yl)oxy)-4-(4-((2-(4-(2-fluoro-5-(2-hydroxypropan-2-yl)phenyl)thiophen-2-yl)-4,4-dimethylcyclohex-1-en-1-yl)methyl)piperazin-1-yl)-N-((4-((((1r,4r)-4-hydroxy-4-methylcyclohexyl)methyl)amino)-3-nitrophenyl)sulfonyl)benzamide] yielded a pIC50 of 7.46. `CC1(C)CCC(CN2CCN(c3ccc(C(=O)NS(=O)(=O)c4ccc(NC[C@H]5CC[C@](C)(O)CC5)c([N+](=O)[O-])c4)c(Oc4cnc5[nH]ccc5c4)c3)CC2)=C(c2cc(-c3ccc(C(C)(O)C(F)(F)F)cc3F)cs2)C1` (some centres unmarked) [Example 78, 2-((1H-pyrrolo[2,3-b]pyridin-5-yl)oxy)-4-(4-((2-(4-(2-fluoro-4-(1,1,1-trifluoro-2-hydroxypropan-2-yl)phenyl)thiophen-2-yl)-4,4-dimethylcyclohex-1-en-1-yl)methyl)piperazin-1-yl)-N-((4-((((1r,4r)-4-hydroxy-4-methylcyclohexyl)methyl)amino)-3-nitrophenyl)sulfonyl)benzamide] gave a pIC50 of 7.48. Molecule `CC1(C)CCC(CN2CCN(c3ccc(C(=O)NS(=O)(=O)c4ccc(NC[C@H]5CC[C@](C)(O)CC5)c([N+](=O)[O-])c4)c(Oc4cnc5[nH]ccc5c4)c3)CC2)=C(c2cc(-c3ccc4c(c3)CCC4(C)O)cs2)C1` (some centres unmarked) [Example 79, 2-((1H-pyrrolo[2,3-b]pyridin-5-yl)oxy)-4-(4-((2-(4-(1-hydroxy-1-methyl-2,3-dihydro-1H-inden-5-yl)thiophen-2-yl)-4,4-dimethylcyclohex-1-en-1-yl)methyl)piperazin-1-yl)-N-((4-((((1r,4r)-4-hydroxy-4-methylcyclohexyl)methyl)amino)-3-nitrophenyl)sulfonyl)benzamide] has a pIC50 of 7.65. Work on `CC(=O)NC(C)(C)c1cc(F)c(-c2csc(C3=C(CN4CCN(c5ccc(C(=O)NS(=O)(=O)c6ccc(NC[C@H]7CC[C@](C)(O)CC7)c([N+](=O)[O-])c6)c(Oc6cnc7[nH]ccc7c6)c5)CC4)CCC(C)(C)C3)c2)c(F)c1` [Example 80, 2-((1H-pyrrolo[2,3-b]pyridin-5-yl)oxy)-4-(4-((2-(4-(4-(2-acetamidopropan-2-yl)-2,6-difluorophenyl)thiophen-2-yl)-4,4-dimethylcyclohex-1-en-1-yl)methyl)piperazin-1-yl)-N-((4-((((1r,4r)-4-hydroxy-4-methylcyclohexyl)methyl)amino)-3-nitrophenyl)sulfonyl)benzamide] yielded a pIC50 of 7.63. `Cc1sc(C2=C(CN3CCN(c4ccc(C(=O)NS(=O)(=O)c5ccc(NC[C@H]6CC[C@](C)(O)CC6)c([N+](=O)[O-])c5)c(Oc5cnc6[nH]ccc6c5)c4)CC3)CCC(C)(C)C2)cc1-c1c(F)cc(C(C)(C)O)cc1F` [Example 81, 2-((1H-pyrrolo[2,3-b]pyridin-5-yl)oxy)-4-(4-((2-(4-(2,6-difluoro-4-(2-hydroxypropan-2-yl)phenyl)-5-methylthiophen-2-yl)-4,4-dimethylcyclohex-1-en-1-yl)methyl)piperazin-1-yl)-N-((4-((((1r,4r)-4-hydroxy-4-methylcyclohexyl)methyl)amino)-3-nitrophenyl)sulfonyl)benzamide] showed a pIC50 of 6.99. `CC1(C)CCC(CN2CCN(c3ccc(C(=O)NS(=O)(=O)c4ccc(NC[C@H]5CC[C@](C)(O)CC5)c([N+](=O)[O-])c4)c(Oc4cnc5[nH]ccc5c4)c3)CC2)=C(c2cc(-c3c(F)cc(C(C)(C)C(=O)O)cc3F)cs2)C1` [Example 82, 2-(4-(5-(2-((4-(3-((1H-pyrrolo[2,3-b]pyridin-5-yl)oxy)-4-(((4-((((1r,4r)-4-hydroxy-4-methylcyclohexyl)methyl)amino)-3-nitrophenyl)sulfonyl)carbamoyl)phenyl)piperazin-1-yl)methyl)-5,5-dimethylcyclohex-1-en-1-yl)thiophen-3-yl)-3,5-difluorophenyl)-2-methylpropanoic acid] showed a pIC50 of 7.65.

Reference: patent US12577245B2, “Sulfonyl benzamide derivatives as Bcl-2 inhibitors” (ASCENTAGE PHARMA (SUZHOU) CO., LTD., priority 2021, dated 2026)
